In assay [1] the test system is Envelope glycoprotein gp160 (Human immunodeficiency virus 1), Q72502 [V38A]. Nature of the assay: Thermal stability of HIV1 envelope glycoprotein gp41 His-tagged N-terminal heptad repeat N54 V38A mutant-drug complex assessed as thermal unfolding transition state by measuring molar ellipticity at 4 to 90 degC by circular dichroic spectra analysis.
The test system is the same in assay [2]. Nature of the assay: Binding affinity to HIV1 His-tagged N-terminal heptad repeat of envelope glycoprotein gp41 assessed as recovery of N54 V38A mutant-drug complex after 2 hrs by LC-MS analysis. Details: concentration or dose not given beside the values.
Assay [3] deals with Human immunodeficiency virus 1. Nature of the assay: Binding affinity to HIV1 His-tagged N-terminal heptad repeat of envelope glycoprotein gp41 assessed as recovery of N54 N43D mutant-drug complex after 2 hrs by LC-MS analysis. On the set-up: concentration or dose not given beside the values.
In assay [4] the test system is Human immunodeficiency virus 1. Briefly: Binding affinity to HIV1 His-tagged N-terminal heptad repeat of envelope glycoprotein gp41 assessed as recovery of N54-drug complex after 2 hrs by LC-MS analysis. On the set-up: concentration or dose not given beside the values.
Assay [5] concerns Human immunodeficiency virus 1. Briefly: Thermal stability of HIV1 envelope glycoprotein gp41 His-tagged N-terminal heptad repeat N54 N43D mutant-drug complex assessed as thermal unfolding transition state by measuring molar ellipticity at 4 to 90 degC by circular dichroic spectra analysis.
The subject of assay [6] is Human immunodeficiency virus 1. Nature of the assay: Thermal stability of HIV1 envelope glycoprotein gp41 His-tagged N-terminal heptad repeat N54-drug complex assessed as thermal unfolding transition state by measuring molar ellipticity at 4 to 90 degC by circular dichroic spectra analysis.
For assay [7], the system named is Human immunodeficiency virus 1. Briefly: Antiviral activity against HIV1 NL4-3 harboring gp41 D36G mutant infected in human HeLa cells expressing CD4-LTR-beta-gal assessed as inhibition of viral replication after 48 hrs by MAGI assay. The class given is functional, organism-based.

Residues, ends and D or L forms follow the SMILES beside them.

`CC[C@H](C)[C@H](NC(=O)[C@H](CC(C)C)NC(=O)[C@H](CCC(=O)O)NC(=O)[C@H](CCC(=O)O)NC(=O)[C@@H](NC(=O)[C@H](CC(C)C)NC(=O)[C@H](CO)NC(=O)[C@@H](NC(=O)[C@H](Cc1ccc(O)cc1)NC(C)=O)[C@@H](C)O)[C@@H](C)CC)C(=O)N[C@@H](CCCCN)C(=O)N[C@@H](CCCCN)C(=O)N[C@@H](CO)C(=O)N[C@@H](CCC(=O)O)C(=O)N[C@@H](CCC(=O)O)C(=O)N[C@@H](CCC(N)=O)C(=O)N[C@@H](CCC(N)=O)C(=O)N[C@@H](CCCCN)C(=O)N[C@@H](CCCCN)C(=O)N[C@@H](CC(N)=O)C(=O)N[C@@H](CCC(=O)O)C(=O)N[C@@H](CCC(=O)O)C(=O)N[C@@H](CCC(=O)O)C(=O)N[C@@H](CC(C)C)C(=O)N[C@@H](CCCCN)C(=O)N[C@@H](CCCCN)C(=O)N[C@@H](CC(C)C)C(=O)N[C@@H](CCC(=O)O)C(=O)N[C@@H](CCC(=O)O)C(=O)N[C@@H](Cc1c[nH]c2ccccc12)C(=O)N[C@@H](C)C(=O)N[C@@H](CCCCN)C(=O)N[C@@H](CCCCN)C(=O)N[C@@H](Cc1c[nH]c2ccccc12)C(=O)N[C@@H](CC(N)=O)C(=O)N[C@@H](Cc1c[nH]c2ccccc12)C(=O)N[C@@H](Cc1ccccc1)C(N)=O` (Ac-YTSLIEELIKKSEEQQKKNEEELKKLEEWAKKWNWF-NH2): the Tm in assay [1] worked out at 60 °C; in assay [5], 65.3 °C; in assay [6] it was 78.8 °C. Besides, the Activity in assay [2] was 9.3%; in assay [3] it was 7.4%; in assay [4], 8.2%. Moreover, the EC50 in assay [7] is 1.1 nM.

For `CC[C@H](C)[C@H](NC(=O)[C@H](CC(C)C)NC(=O)[C@H](CCC(=O)O)NC(=O)[C@H](CCC(=O)O)NC(=O)[C@@H](NC(=O)[C@H](CC(C)C)NC(=O)[C@H](CO)NC(=O)[C@@H](NC(=O)[C@H](Cc1ccc(O)cc1)NC(C)=O)[C@@H](C)O)[C@@H](C)CC)C(=O)N[C@@H](CCCCN)C(=O)N[C@@H](CCCCN)C(=O)N[C@H](C(=O)N[C@@H](CCC(=O)O)C(=O)N[C@@H](CCC(=O)O)C(=O)N[C@@H](CCC(N)=O)C(=O)N[C@@H](CCC(N)=O)C(=O)N[C@@H](CCCCN)C(=O)N[C@@H](CCCCN)C(=O)N[C@@H](CC(N)=O)C(=O)N[C@@H](CCC(=O)O)C(=O)N[C@@H](CCC(=O)O)C(=O)N[C@@H](CCC(=O)O)C(=O)N[C@@H](CC(C)C)C(=O)N[C@@H](CCCCN)C(=O)N[C@@H](CCCCN)C(=O)N[C@@H](CC(C)C)C(=O)N[C@@H](CCC(=O)O)C(=O)N[C@@H](CCC(=O)O)C(=O)N[C@@H](Cc1c[nH]c2ccccc12)C(=O)N[C@@H](C)C(=O)N[C@@H](CCCCN)C(=O)N[C@@H](CCCCN)C(=O)N[C@@H](Cc1c[nH]c2ccccc12)C(=O)N[C@@H](CC(N)=O)C(=O)N[C@@H](Cc1c[nH]c2ccccc12)C(=O)N[C@@H](Cc1ccccc1)C(N)=O)[C@@H](C)O` (Ac-YTSLIEELIKKTEEQQKKNEEELKKLEEWAKKWNWF-NH2), the Tm in assay [1] was determined as 57.8 °C; in assay [5], 62.4 °C; in assay [6], 75.9 °C. In addition, the Activity in assay [2] was 8.1%; in assay [3], 6.1%; in assay [4], 10%. Further, in assay [7], the EC50 turned out to be 0.4 nM.

As for `CC[C@H](C)[C@H](NC(=O)[C@H](CC(C)C)NC(=O)[C@H](CCC(=O)O)NC(=O)[C@H](CCC(=O)O)NC(=O)[C@@H](NC(=O)[C@H](CC(C)C)NC(=O)[C@H](CO)NC(=O)[C@@H](NC(=O)[C@H](Cc1ccc(O)cc1)NC(C)=O)[C@@H](C)O)[C@@H](C)CC)C(=O)N[C@@H](CCCCN)C(=O)N[C@@H](CCCCN)C(=O)N[C@@H](CC(C)C)C(=O)N[C@@H](CCC(=O)O)C(=O)N[C@@H](CCC(=O)O)C(=O)N[C@@H](CCC(N)=O)C(=O)N[C@@H](CCC(N)=O)C(=O)N[C@@H](CCCCN)C(=O)N[C@@H](CCCCN)C(=O)N[C@@H](CC(N)=O)C(=O)N[C@@H](CCC(=O)O)C(=O)N[C@@H](CCC(=O)O)C(=O)N[C@@H](CCC(=O)O)C(=O)N[C@@H](CC(C)C)C(=O)N[C@@H](CCCCN)C(=O)N[C@@H](CCCCN)C(=O)N[C@@H](CC(C)C)C(=O)N[C@@H](CCC(=O)O)C(=O)N[C@@H](CCC(=O)O)C(=O)N[C@@H](Cc1c[nH]c2ccccc12)C(=O)N[C@@H](C)C(=O)N[C@@H](CCCCN)C(=O)N[C@@H](CCCCN)C(=O)N[C@@H](Cc1c[nH]c2ccccc12)C(=O)N[C@@H](CC(N)=O)C(=O)N[C@@H](Cc1c[nH]c2ccccc12)C(=O)N[C@@H](Cc1ccccc1)C(N)=O` (Ac-YTSLIEELIKKLEEQQKKNEEELKKLEEWAKKWNWF-NH2), the Tm in assay [1] is 57.5 °C; in assay [5] it was 74 °C; in assay [6], 77.6 °C. Moreover, the Activity was determined as 10.1% in assay [2], 10.8% in assay [3] and 10.4% in assay [4]. Moreover, in assay [7], the EC50 is 0.4 nM.

Turning to `CC[C@H](C)[C@H](NC(=O)[C@H](CC(C)C)NC(=O)[C@H](CO)NC(=O)[C@@H](NC(=O)[C@H](Cc1ccc(O)cc1)NC(C)=O)[C@@H](C)O)C(=O)N[C@@H](CCC(=O)O)C(=O)N[C@@H](CCC(=O)O)C(=O)N[C@@H](CC(C)C)C(=O)N[C@H](C(=O)N[C@@H](CCCCN)C(=O)N[C@@H](CCCCN)C(=O)N1CCC[C@H]1C(=O)N[C@@H](CCC(=O)O)C(=O)N[C@@H](CCC(=O)O)C(=O)N[C@@H](CCC(N)=O)C(=O)N[C@@H](CCC(N)=O)C(=O)N[C@@H](CCCCN)C(=O)N[C@@H](CCCCN)C(=O)N[C@@H](CC(N)=O)C(=O)N[C@@H](CCC(=O)O)C(=O)N[C@@H](CCC(=O)O)C(=O)N[C@@H](CCC(=O)O)C(=O)N[C@@H](CC(C)C)C(=O)N[C@@H](CCCCN)C(=O)N[C@@H](CCCCN)C(=O)N[C@@H](CC(C)C)C(=O)N[C@@H](CCC(=O)O)C(=O)N[C@@H](CCC(=O)O)C(=O)N[C@@H](Cc1c[nH]c2ccccc12)C(=O)N[C@@H](C)C(=O)N[C@@H](CCCCN)C(=O)N[C@@H](CCCCN)C(=O)N[C@@H](Cc1c[nH]c2ccccc12)C(=O)N[C@@H](CC(N)=O)C(=O)N[C@@H](Cc1c[nH]c2ccccc12)C(=O)N[C@@H](Cc1ccccc1)C(N)=O)[C@@H](C)CC` (Ac-YTSLIEELIKKPEEQQKKNEEELKKLEEWAKKWNWF-NH2), the Tm came out at 49.7 °C in assay [1], 55 °C in assay [5] and 55.5 °C in assay [6]. In addition, the Activity was determined as 0% in assay [2], 0.3% in assay [3] and 0.2% in assay [4]. Further, in assay [7], the EC50 was determined as 44 nM.

For `CC[C@H](C)[C@H](NC(=O)[C@H](CC(C)C)NC(=O)[C@H](CCC(=O)O)NC(=O)[C@H](CCC(=O)O)NC(=O)[C@@H](NC(=O)[C@H](CC(C)C)NC(=O)[C@H](CO)NC(=O)[C@@H](NC(=O)[C@H](Cc1ccc(O)cc1)NC(C)=O)[C@@H](C)O)[C@@H](C)CC)C(=O)N[C@@H](CCCCN)C(=O)N[C@@H](CCCCN)C(=O)N[C@@H](Cc1c[nH]c2ccccc12)C(=O)N[C@@H](CCC(=O)O)C(=O)N[C@@H](CCC(=O)O)C(=O)N[C@@H](CCC(N)=O)C(=O)N[C@@H](CCC(N)=O)C(=O)N[C@@H](CCCCN)C(=O)N[C@@H](CCCCN)C(=O)N[C@@H](CC(N)=O)C(=O)N[C@@H](CCC(=O)O)C(=O)N[C@@H](CCC(=O)O)C(=O)N[C@@H](CCC(=O)O)C(=O)N[C@@H](CC(C)C)C(=O)N[C@@H](CCCCN)C(=O)N[C@@H](CCCCN)C(=O)N[C@@H](CC(C)C)C(=O)N[C@@H](CCC(=O)O)C(=O)N[C@@H](CCC(=O)O)C(=O)N[C@@H](Cc1c[nH]c2ccccc12)C(=O)N[C@@H](C)C(=O)N[C@@H](CCCCN)C(=O)N[C@@H](CCCCN)C(=O)N[C@@H](Cc1c[nH]c2ccccc12)C(=O)N[C@@H](CC(N)=O)C(=O)N[C@@H](Cc1c[nH]c2ccccc12)C(=O)N[C@@H](Cc1ccccc1)C(N)=O` (Ac-YTSLIEELIKKWEEQQKKNEEELKKLEEWAKKWNWF-NH2), the Tm in assay [1] was 53.2 °C; in assay [5] it was 61.4 °C; in assay [6], 62 °C. Moreover, the Activity turned out to be 7.7% in assay [2], 7.6% in assay [3] and 5.2% in assay [4]. In addition, the EC50 in assay [7] worked out at 20 nM.

(Values after ChEMBL document CHEMBL3390848, “Affinity selection and sequence-activity relationships of HIV-1 membrane fusion inhibitors directed at the drug-resistant variants” (Medchemcomm, 2010).)
